Laboratory results published in ChEMBL document CHEMBL1152723, “Remarkable enhancement in the DNA-binding ability of C2-fluoro substituted pyrrolo[2,1-c][1,4]benzodiazepines and their anticancer potential” (2009).

Tests used:
UACC-62 = experiment: Growth inhibition of human UACC62 cells after 48 hrs by sulforhodamine B protein assay; format: functional; conditions: UACC-62, 48 h
IGROV-1 = experiment: Growth inhibition of human IGROV1 cells after 48 hrs by sulforhodamine B protein assay; format: functional; conditions: IGROV-1, 48 h
OVCAR-3 = experiment: Growth inhibition of human OVCAR-3 cells after 48 hrs by sulforhodamine B protein assay; format: functional; conditions: OVCAR-3, 48 h
OVCAR-4 = experiment: Growth inhibition of human OVCAR4 cells after 48 hrs by sulforhodamine B protein assay; format: functional; conditions: OVCAR-4, 48 h
OVCAR-5 = experiment: Growth inhibition of human OVCAR5 cells after 48 hrs by sulforhodamine B protein assay; format: functional; conditions: OVCAR-5, 48 h
OVCAR-8 = experiment: Growth inhibition of human OVCAR8 cells after 48 hrs by sulforhodamine B protein assay; format: functional; conditions: OVCAR-8, 48 h
SK-OV-3 = experiment: Growth inhibition of human SKOV3 cells after 48 hrs by sulforhodamine B protein assay; format: functional; conditions: SK-OV-3, 48 h
786-0 = experiment: Growth inhibition of human 786-0 cells after 48 hrs by sulforhodamine B protein assay; format: functional; conditions: 786-0, 48 h
ACHN = experiment: Growth inhibition of human ACHN cells after 48 hrs by sulforhodamine B protein assay; format: functional
CAKI-1 = experiment: Growth inhibition of human Caki1 cells after 48 hrs by sulforhodamine B protein assay; format: functional; conditions: CAKI-1, 48 h
SN12C = experiment: Growth inhibition of human SN12C cells after 48 hrs by sulforhodamine B protein assay; format: functional
TK-10 = experiment: Growth inhibition of human TK10 cells after 48 hrs by sulforhodamine B protein assay; format: functional; conditions: TK-10, 48 h
UO-31 = experiment: Growth inhibition of human UO31 cells after 48 hrs by sulforhodamine B protein assay; format: functional; conditions: UO-31, 48 h
PC-3 = experiment: Growth inhibition of human PC3 cells after 48 hrs by sulforhodamine B protein assay; format: functional; conditions: PC-3, 48 h
DU-145 = experiment: Growth inhibition of human DU145 cells after 48 hrs by sulforhodamine B protein assay; format: functional; conditions: DU-145, 48 h
MCF7 = experiment: Growth inhibition of human MCF7 cells after 48 hrs by sulforhodamine B protein assay; format: functional; conditions: MCF7, 48 h
MDA-MB-231 = experiment: Growth inhibition of human MDA-MB-231 cells after 48 hrs by sulforhodamine B protein assay; format: functional; conditions: MDA-MB-231, 48 h
[1] = Growth inhibition of human Hs 578T cells after 48 hrs by sulforhodamine B protein assay; format: functional
MDA-MB-435 = experiment: Growth inhibition of human MDA-MB-435 cells after 48 hrs by sulforhodamine B protein assay; format: functional; conditions: MDA-MB-435, 48 h
BT-549 = experiment: Growth inhibition of human BT549 cells after 48 hrs by sulforhodamine B protein assay; format: functional; conditions: BT-549, 48 h
T47D = experiment: Growth inhibition of human T47D cells after 48 hrs by sulforhodamine B protein assay; format: functional
DNA = experiment: Binding affinity to calf thymus DNA assessed as change in melting temperature at a compound to DNA molar ratio of 1:5 at pH 7 by thermal denaturation assay; format: nucleic-acid assay; conditions: Bos taurus
[2] = biological target: T1, Type II restriction enzyme BamHI (Bacillus amyloliquefaciens) (UniProt P23940); experiment: Inhibition of Bacillus amyloliquefaciens BamH1-mediated pBR322 cleavage after 16 hrs by RED100-restriction endonuclease digestion assay
T1 sequence (whole entry): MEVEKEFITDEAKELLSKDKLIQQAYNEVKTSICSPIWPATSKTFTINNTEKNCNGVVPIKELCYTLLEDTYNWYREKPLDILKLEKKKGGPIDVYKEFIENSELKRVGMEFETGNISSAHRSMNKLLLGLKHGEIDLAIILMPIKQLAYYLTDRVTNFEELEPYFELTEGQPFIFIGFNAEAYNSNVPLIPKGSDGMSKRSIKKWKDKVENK

CCRF-CEM = experiment: Growth inhibition of human CCRF-CEM cells after 48 hrs by sulforhodamine B protein assay; format: functional
HL-60(TB) = experiment: Growth inhibition of human HL-60(TB) cells after 48 hrs by sulforhodamine B protein assay; format: functional; conditions: HL-60, 48 h
K562 = experiment: Growth inhibition of human K562 cells after 48 hrs by sulforhodamine B protein assay; format: functional; conditions: K562, 48 h
MOLT-4 = experiment: Growth inhibition of human MOLT4 cells after 48 hrs by sulforhodamine B protein assay; format: functional; conditions: MOLT-4, 48 h
[3] = Growth inhibition of human […] cells after 48 hrs by sulforhodamine B protein assay; format: functional
SR = experiment: Growth inhibition of human SR cells after 48 hrs by sulforhodamine B protein assay; format: functional
A549 = experiment: Growth inhibition of human A549 cells after 48 hrs by sulforhodamine B protein assay; format: functional; conditions: A549, 48 h
EKVX = experiment: Growth inhibition of human EKVX cells after 48 hrs by sulforhodamine B protein assay; format: functional
HOP-62 = experiment: Growth inhibition of human HOP62 cells after 48 hrs by sulforhodamine B protein assay; format: functional; conditions: HOP-62, 48 h
NCI-H226 = experiment: Growth inhibition of human NCI-H226 cells after 48 hrs by sulforhodamine B protein assay; format: functional; conditions: NCI-H226, 48 h
NCI-H23 = experiment: Growth inhibition of human NCI-H23 cells after 48 hrs by sulforhodamine B protein assay; format: functional; conditions: NCI-H23, 48 h
NCI-H322M = experiment: Growth inhibition of human NCI-H322M cells after 48 hrs by sulforhodamine B protein assay; format: functional
NCI-H460 = experiment: Growth inhibition of human NCI-H460 cells after 48 hrs by sulforhodamine B protein assay; format: functional; conditions: NCI-H460, 48 h
NCI-H522 = experiment: Growth inhibition of human NCI-H522 cells after 48 hrs by sulforhodamine B protein assay; format: functional; conditions: NCI-H522, 48 h
COLO 205 = experiment: Growth inhibition of human COLO205 cells after 48 hrs by sulforhodamine B protein assay; format: functional; conditions: COLO 205, 48 h
HCC 2998 = experiment: Growth inhibition of human HCC2998 cells after 48 hrs by sulforhodamine B protein assay; format: functional; conditions: HCC 2998, 48 h
HCT-116 = experiment: Growth inhibition of human HCT116 cells after 48 hrs by sulforhodamine B protein assay; format: functional; conditions: HCT-116, 48 h
HCT-15 = experiment: Growth inhibition of human HCT15 cells after 48 hrs by sulforhodamine B protein assay; format: functional; conditions: HCT-15, 48 h
HT-29 = experiment: Growth inhibition of human HT-29 cells after 48 hrs by sulforhodamine B protein assay; format: functional; conditions: HT-29, 48 h
KM12 = experiment: Growth inhibition of human KM12 cells after 48 hrs by sulforhodamine B protein assay; format: functional; conditions: KM12, 48 h
SW-620 = experiment: Growth inhibition of human SW620 cells after 48 hrs by sulforhodamine B protein assay; format: functional; conditions: SW-620, 48 h
SF-295 = experiment: Growth inhibition of human SF295 cells after 48 hrs by sulforhodamine B protein assay; format: functional; conditions: SF-295, 48 h
SF-539 = experiment: Growth inhibition of human SF539 cells after 48 hrs by sulforhodamine B protein assay; format: functional; conditions: SF-539, 48 h
SNB-19 = experiment: Growth inhibition of human SNB19 cells after 48 hrs by sulforhodamine B protein assay; format: functional; conditions: SNB-19, 48 h
SNB-75 = experiment: Growth inhibition of human SNB75 cells after 48 hrs by sulforhodamine B protein assay; format: functional; conditions: SNB-75, 48 h
U-251 = experiment: Growth inhibition of human U251 cells after 48 hrs by sulforhodamine B protein assay; format: functional; conditions: U-251, 48 h
LOX IMVI = experiment: Growth inhibition of human LOXIMVI cells after 48 hrs by sulforhodamine B protein assay; format: functional
Malme-3M = experiment: Growth inhibition of human MALME-3M cells after 48 hrs by sulforhodamine B protein assay; format: functional
SK-MEL-2 = experiment: Growth inhibition of human SK-MEL-2 cells after 48 hrs by sulforhodamine B protein assay; format: functional; conditions: SK-MEL-2, 48 h
SK-MEL-28 = experiment: Growth inhibition of human SK-MEL-28 cells after 48 hrs by sulforhodamine B protein assay; format: functional; conditions: SK-MEL-28, 48 h
UACC-257 = experiment: Growth inhibition of human UACC257 cells after 48 hrs by sulforhodamine B protein assay; format: functional; conditions: UACC-257, 48 h
A498 = experiment: Growth inhibition of human A498 cells after 48 hrs by sulforhodamine B protein assay; format: functional; conditions: A498, 48 h

Question: Which GI50 (UACC-62) does the source give for COc1cc2c(cc1OCCCOc1cc3c(cc1OC)C(=O)N1CC(F)(F)C[C@H]1C=N3)N=C[C@@H]1CC(F)(F)CN1C2=O here?
Answer: Its GI50 is 410 nM.

Question: And the GI50 (IGROV-1)?
Answer: The GI50 was 110 nM.

Question: And the GI50 (OVCAR-3)?
Answer: The GI50 was 940 nM.

Question: And the GI50 (OVCAR-4)?
Answer: Its GI50 is 1450 nM.

Question: What about the GI50 (OVCAR-5) of the same compound?
Answer: Its GI50 is 750 nM.

Question: What about the GI50 (OVCAR-8) of the same compound?
Answer: Its GI50 is 420 nM.

Question: And the GI50 (SK-OV-3)?
Answer: The GI50 was 600 nM.

Question: And the GI50 (786-0)?
Answer: The GI50 was < 10 nM.

Question: What about the GI50 (ACHN) of the same compound?
Answer: The GI50 was 650 nM.

Question: And the GI50 (CAKI-1)?
Answer: The GI50 was < 10 nM.

Question: And the GI50 (SN12C)?
Answer: Its GI50 is 170 nM.

Question: What about the GI50 (TK-10) of the same compound?
Answer: Its GI50 is 3450 nM.

Question: What about the GI50 (UO-31) of the same compound?
Answer: The GI50 was 1050 nM.

Question: What about the GI50 (PC-3) of the same compound?
Answer: The GI50 was < 80 nM.

Question: What about the GI50 (DU-145) of the same compound?
Answer: Its GI50 is 370 nM.

Question: And the GI50 (MCF7)?
Answer: The GI50 was 130 nM.

Question: What about the GI50 (MDA-MB-231) of the same compound?
Answer: The GI50 was 800 nM.

Question: What about the GI50 [1] of the same compound?
Answer: Its GI50 is 170 nM.

Question: What about the GI50 (MDA-MB-435) of the same compound?
Answer: Its GI50 is 570 nM.

Question: What about the GI50 (BT-549) of the same compound?
Answer: The GI50 was 410 nM.

Question: And the GI50 (T47D)?
Answer: The GI50 was 240 nM.

Question: What about the ΔTm (DNA) of the same compound?
Answer: Its ΔTm is 13.1 °C.

Question: And the Activity [2]?
Answer: Its Activity is “Dose-dependent effect”.

Question: And the GI50 (CCRF-CEM)?
Answer: Its GI50 is 410 nM.

Question: And the GI50 (HL-60(TB))?
Answer: Its GI50 is 250 nM.

Question: What about the GI50 (K562) of the same compound?
Answer: Its GI50 is 530 nM.

Question: And the GI50 (MOLT-4)?
Answer: The GI50 was 80 nM.

Question: And the GI50 [3]?
Answer: The GI50 was 1670 nM.

Question: What about the GI50 (SR) of the same compound?
Answer: The GI50 was < 60 nM.

Question: And the GI50 (A549)?
Answer: Its GI50 is 1210 nM.

Question: And the GI50 (EKVX)?
Answer: Its GI50 is 1720 nM.

Question: And the GI50 (HOP-62)?
Answer: The GI50 was 100 nM.

Question: And the GI50 (NCI-H226)?
Answer: Its GI50 is 620 nM.

Question: What about the GI50 (NCI-H23) of the same compound?
Answer: The GI50 was 490 nM.

Question: And the GI50 (NCI-H322M)?
Answer: The GI50 was 2190 nM.

Question: What about the GI50 (NCI-H460) of the same compound?
Answer: The GI50 was < 80 nM.

Question: And the GI50 (NCI-H522)?
Answer: Its GI50 is 140 nM.

Question: What about the GI50 (COLO 205) of the same compound?
Answer: The GI50 was 580 nM.

Question: What about the GI50 (HCC 2998) of the same compound?
Answer: Its GI50 is 1030 nM.

Question: What about the GI50 (HCT-116) of the same compound?
Answer: Its GI50 is 130 nM.

Question: And the GI50 (HCT-15)?
Answer: Its GI50 is 8620 nM.

Question: What about the GI50 (HT-29) of the same compound?
Answer: The GI50 was 270 nM.

Question: And the GI50 (KM12)?
Answer: Its GI50 is 2070 nM.

Question: What about the GI50 (SW-620) of the same compound?
Answer: The GI50 was 310 nM.

Question: And the GI50 (SF-295)?
Answer: Its GI50 is < 30 nM.

Question: And the GI50 (SF-539)?
Answer: Its GI50 is 150 nM.

Question: And the GI50 (SNB-19)?
Answer: The GI50 was 350 nM.

Question: And the GI50 (SNB-75)?
Answer: Its GI50 is 80 nM.

Question: And the GI50 (U-251)?
Answer: Its GI50 is 110 nM.

Question: What about the GI50 (LOX IMVI) of the same compound?
Answer: The GI50 was 200 nM.

Question: And the GI50 (Malme-3M)?
Answer: Its GI50 is 1030 nM.

Question: And the GI50 (SK-MEL-2)?
Answer: The GI50 was 1620 nM.

Question: And the GI50 (SK-MEL-28)?
Answer: Its GI50 is 1130 nM.

Question: And the GI50 (UACC-257)?
Answer: Its GI50 is 1330 nM.

Question: What about the GI50 (A498) of the same compound?
Answer: The GI50 was 610 nM.
